Source: patent publication US20250262201A1, “COMPOUNDS AND METHODS USEFUL FOR STABILIZING PHENYLALANINE HYDROXYLASE MUTATIONS” (Agios Pharmaceuticals, Inc., priority 2022, published 2025)

Each compound was assayed against T1, human PAH with the R408W mutation (Homo sapiens, UniProt P00439, R408W) (assay: Cell Based Phenylalanine Flux Assay). Conditions: not given.
T1 construct: expressed in transfected cells
T1 sequence (P00439 1-452 R408W): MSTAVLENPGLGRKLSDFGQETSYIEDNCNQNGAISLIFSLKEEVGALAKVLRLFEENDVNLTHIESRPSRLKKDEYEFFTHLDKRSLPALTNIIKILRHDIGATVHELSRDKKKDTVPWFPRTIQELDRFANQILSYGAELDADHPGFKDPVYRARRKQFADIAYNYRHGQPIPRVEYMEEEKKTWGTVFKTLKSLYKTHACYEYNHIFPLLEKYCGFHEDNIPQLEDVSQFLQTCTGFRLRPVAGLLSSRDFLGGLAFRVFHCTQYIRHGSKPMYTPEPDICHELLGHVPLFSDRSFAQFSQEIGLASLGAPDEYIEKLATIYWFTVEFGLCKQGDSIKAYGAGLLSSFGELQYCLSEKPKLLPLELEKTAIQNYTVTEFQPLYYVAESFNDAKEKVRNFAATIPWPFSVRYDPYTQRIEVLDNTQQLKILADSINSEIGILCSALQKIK
Parameters: scale not given here

SMILES | AC50 [µM]
Cn1ncc(C(=O)N2CCc3[nH]cnc3C2c2ccc3ccccc3n2)c1C(F)F (centres unmarked) | 1 to 5

Same assay, conditions: A375 R408W cells, 24 hrs with compound, then 20 μM sepiapterin and 800 μM 13C9,15N-Phenylalanine for 4 hours; 13C-Tyrosine by LC-MS; average where tested multiple times

SMILES | AC50
Cc1nnc(CC(=O)N2CCc3[nH]cnc3C2c2cn3ccccc3n2)o1 (centres unmarked) | E, E
Cc1ocnc1CC(=O)N1CCc2[nH]cnc2C1c1cn2ccccc2n1 (centres unmarked) | E, E
O=C(CC1(O)CCC1)N1CCc2[nH]cnc2C1c1cn2ccccc2n1 (centres unmarked) | E, E
Nc1nc(C(F)(F)F)c(C(=O)N2CCc3[nH]cnc3C2c2cn3ccccc3n2)o1 (centres unmarked) | E, E
CC(C)(O)c1nc(C(F)(F)F)c(C(=O)N2CCc3[nH]cnc3C2c2ccc3ccccc3n2)o1 (centres unmarked) | E, E
Cn1ccc(-c2nc(C(F)F)c(C(=O)N3CCc4[nH]cnc4C3c3ncc4ccccc4n3)o2)n1 (centres unmarked) | E, E
CC(C)(O)c1nc(C(F)F)c(C(=O)N2CCc3[nH]cnc3C2c2ncc3ccccc3n2)o1 (centres unmarked) | E, E
Cc1nc(C(=O)N2CCc3[nH]cnc3C2c2ncc3ccccc3n2)n(C)n1 (centres unmarked) | E, E
Cn1cc(-c2nc(C(F)(F)F)c(C(=O)N3CCc4[nH]cnc4C3c3ncc4ccccc4n3)o2)cn1 (centres unmarked) | E, E
Cn1cnc(-c2nc(C(F)F)c(C(=O)N3CCc4[nH]cnc4C3c3ncc4ccccc4n3)o2)c1 (centres unmarked) | E, E
O=C(c1oc(-c2ncccn2)nc1C(F)F)N1CCc2[nH]cnc2C1c1ncc2ccccc2n1 (centres unmarked) | E, E
O=C(c1oc(-c2ccncn2)nc1C(F)F)N1CCc2[nH]cnc2C1c1ncc2ccccc2n1 (centres unmarked) | E, E
O=C(c1oc(-c2cncnc2)nc1C(F)F)N1CCc2[nH]cnc2C1c1ncc2ccccc2n1 (centres unmarked) | E, E
CC(C)(O)c1nc(C(F)(F)F)c(C(=O)N2CCc3[nH]cnc3C2c2ncc3ccccc3n2)o1 (centres unmarked) | E, E
O=C(c1ccnn1C(F)F)N1CCc2[nH]cnc2C1c1ncc2ccccc2n1 (centres unmarked) | E, E
O=C(c1oc(-c2ccccn2)nc1C(F)(F)F)N1CCc2[nH]cnc2C1c1ncc2ccccc2n1 (centres unmarked) | E, E
Cn1cc(-c2nc(C(F)F)c(C(=O)N3CCc4[nH]cnc4C3c3ncc4ccccc4n3)o2)cn1 (centres unmarked) | E, E
CN1CCN(c2nc(C(F)F)c(C(=O)N3CCc4[nH]cnc4C3c3ncc4ccccc4n3)o2)CC1 (centres unmarked) | E, E
O=C(c1oc(-c2ccc(F)cn2)nc1C(F)F)N1CCc2[nH]cnc2C1c1ncc2ccccc2n1 (centres unmarked) | E, E
COc1ccc(-c2nc(C(F)F)c(C(=O)N3CCc4[nH]cnc4C3c3ncc4ccccc4n3)o2)nc1 (centres unmarked) | E, E
O=C(c1oc(-c2cnccn2)nc1C(F)F)N1CCc2[nH]cnc2C1c1ncc2ccccc2n1 (centres unmarked) | E, E
O=C(c1oc(-c2ccccn2)nc1C(F)F)N1CCc2[nH]cnc2C1c1ncc2ccccc2n1 (centres unmarked) | E, E
O=C(c1oc(-c2cccnc2)nc1C(F)F)N1CCc2[nH]cnc2C1c1ncc2ccccc2n1 (centres unmarked) | E, E
O=C(c1oc(-c2ccncc2)nc1C(F)F)N1CCc2[nH]cnc2C1c1ncc2ccccc2n1 (centres unmarked) | E, E
O=C(c1oc(N2CCOCC2)nc1C(F)F)N1CCc2[nH]cnc2C1c1ncc2ccccc2n1 (centres unmarked) | E, E
O=C(c1ocnc1C(F)F)N1CCc2[nH]cnc2C1c1ncc2ccccc2n1 (centres unmarked) | E, E
O=C(c1ocnc1C(F)(F)F)N1CCc2[nH]cnc2C1c1ncc2ccccc2n1 (centres unmarked) | E, E

Same assay, conditions: A375 R408W cells, 24 hrs with compound, then 20 μM sepiapterin and 800 μM 13C9,15N-Phenylalanine for 4 hours; 13C-Tyrosine by LC-MS; average where tested multiple times; read-out: AC50

SMILES | AC50 [µM]
O=C(c1nnc(-c2cnn(S(=O)(=O)C3CC3)c2)o1)N1CCc2[nH]cnc2[C@H]1c1cc2ccccc2cn1 | > 5
Cc1c(-c2nnc(C(=O)N3C[C@@H](C)c4[nH]cnc4[C@@H]3c3cc4ccccc4cn3)o2)cnn1C | 1 to 5
C[C@@H]1CN(C(=O)c2nnc(C3(C)CC3)o2)[C@@H](c2cc3ccccc3cn2)c2nc[nH]c21 | 1 to 5
CC(C)(O)c1ccc2c(C(=O)N3CCc4[nH]cnc4C3c3ccc4ccccc4n3)cnn2c1 (centres unmarked) [listing 1 of 2 here] | 1 to 5
CC(C)(O)c1nc(C2CC2)c(C(=O)N2CCCc3[nH]cnc3C2c2cc3ccccc3cn2)o1 (centres unmarked) | 1 to 5
CC(C)(O)c1nc(C2CC2)c(C(=O)N2CCc3[nH]cnc3C2c2ccc3ccccc3n2)o1 (centres unmarked) | 1 to 5
Cn1nc(C(=O)N2CCc3[nH]cnc3C2c2ccc3ccccc3n2)c2ccccc21 (centres unmarked) | 1 to 5
O=C(c1n[nH]c2ccccc12)N1CCc2[nH]cnc2C1c1ccc2ccccc2n1 (centres unmarked) [listing 1 of 2 here] | 1 to 5
O=C(c1nsc2ccccc12)N1CCc2[nH]cnc2C1c1ccc2ccccc2n1 (centres unmarked) | > 5
O=C(c1cnco1)N1CCc2[nH]cnc2C1c1ccc2ccccc2n1 (centres unmarked) [listing 1 of 2 here] | 1 to 5
O=C(c1ocnc1-c1ccccn1)N1CCc2[nH]cnc2C1c1ccc2ccccc2n1 (centres unmarked) | 1 to 5
CC(C)(O)c1ncc(C(=O)N2CCc3[nH]cnc3C2c2ccc3ccccc3n2)s1 (centres unmarked) [listing 1 of 2 here] | 1 to 5
CC(C)(O)c1ncc(C(=O)N2CCc3[nH]cnc3C2c2ccc3ccccc3n2)o1 (centres unmarked) | 1 to 5
Cc1ncoc1C(=O)N1CCc2[nH]cnc2C1c1ccc2ccccc2n1 (centres unmarked) | 1 to 5
CN1CCN(c2nnc(C(=O)N3CCc4[nH]cnc4C3c3ccc4ccccc4n3)o2)CC1 (centres unmarked) [listing 1 of 2 here] | 1 to 5
FC(F)c1nnc(N2CCc3[nH]cnc3C2c2ccc3ccccc3n2)o1 (centres unmarked) | 1 to 5
O=C(c1nnc(N2CCOCC2)o1)N1CCc2[nH]cnc2C1c1ccc2ccccc2n1 (centres unmarked) [listing 1 of 2 here] | 1 to 5
Cc1nnc(C(=O)N2CCc3[nH]cnc3C2c2ccc3ccccc3n2)o1 (centres unmarked) [listing 1 of 2 here] | 1 to 5
CC(C)(F)c1ccc2c(C(=O)N3CCc4[nH]cnc4C3c3ccc4ccccc4n3)cnn2c1 (centres unmarked) [listing 1 of 2 here] | 1 to 5
O=C(c1ncn2ccccc12)N1CCc2[nH]cnc2C1c1ccc2ccccc2n1 (centres unmarked) [listing 1 of 2 here] | 1 to 5

SMILES | AC50 [µM]
O=C(c1cnn2ccccc12)N1CCc2[nH]cnc2C1c1ccc2ccccc2n1 (centres unmarked) | 1 to 5
O=C(C1CC1)N1CCc2[nH]cnc2C1c1ccc2ccccc2n1 (centres unmarked) | 1 to 5
O=C(Cc1cnn2ccccc12)N1CCc2[nH]cnc2C1c1ccc2ccccc2n1 (centres unmarked) | 1 to 5
O=C(c1cncs1)N1CCc2[nH]cnc2C1c1cc2ccccc2cn1 (centres unmarked) | > 5
Cc1nc(C(C)(C)F)oc1C(=O)N1CCc2[nH]cnc2C1c1cc2ccccc2cn1 (centres unmarked) | 1 to 5
Cc1nc(C(C)(C)C)oc1C(=O)N1CCc2[nH]cnc2C1c1cc2ccccc2cn1 (centres unmarked) | 1 to 5
O=C(c1ocnc1C1CC1)N1CCCc2[nH]cnc2C1c1cc2ccccc2cn1 (centres unmarked) | > 5
Cn1cc(-c2nc(C3CC3)c(C(=O)N3CCCc4[nH]cnc4C3c3cc4ccccc4cn3)o2)cn1 (centres unmarked) | 1 to 5
Cc1ncoc1C(=O)N1CCc2[nH]cnc2C1c1cc2ccccc2cn1 (centres unmarked) | 1 to 5
FC(F)c1nnc(N2CCc3[nH]cnc3C2c2cc3ccccc3cn2)o1 (centres unmarked) | > 5
O=C(c1nnc(-c2ccccn2)o1)N1CCCc2[nH]cnc2C1c1cc2ccccc2cn1 (centres unmarked) | 1 to 5
FC(F)(F)c1cnc(N2CCc3[nH]cnc3C2c2cc3ccccc3cn2)nc1 (centres unmarked) | 1 to 5
Cc1nnc(C(=O)N2CC(C)(C)c3[nH]cnc3C2c2cc3ccccc3cn2)o1 (centres unmarked) | 1 to 5
CN(C)Cc1ccc2c(C(=O)N3CC(C)(C)c4[nH]cnc4C3c3cc4ccccc4cn3)cnn2c1 (centres unmarked) | > 5
CN(C)Cc1ccc2c(C(=O)N3CCc4[nH]cnc4C3c3ccc4ccccc4n3)cnn2c1 (centres unmarked) [listing 1 of 2 here] | 1 to 5
O=C(c1ccn2ncccc12)N1CCc2[nH]cnc2C1c1ccc2ccccc2n1 (centres unmarked) | 1 to 5
CC(C)(O)c1ccc2c(C(=O)N3CCc4[nH]cnc4C3c3cc4ccccc4cn3)cnn2c1 (centres unmarked) | > 5
CC(C)(O)c1ccc2c(C(=O)N3CCc4[nH]cnc4C3c3ccc4ccccc4n3)cnn2c1 (centres unmarked) [listing 2 of 2 here] | > 5
O=C(c1n[nH]c2ccccc12)N1CCc2[nH]cnc2C1c1ccc2ccccc2n1 (centres unmarked) [listing 2 of 2 here] | > 5
O=C(c1cnco1)N1CCc2[nH]cnc2C1c1ccc2ccccc2n1 (centres unmarked) [listing 2 of 2 here] | > 5

SMILES | AC50 [µM]
CC(C)(O)c1ncc(C(=O)N2CCc3[nH]cnc3C2c2cc3ccccc3cn2)o1 (centres unmarked) | 1 to 5
CC(C)(O)c1ncc(C(=O)N2CCc3[nH]cnc3C2c2ccc3ccccc3n2)s1 (centres unmarked) [listing 2 of 2 here] | > 5
CN1CCN(c2nnc(C(=O)N3CCc4[nH]cnc4C3c3ccc4ccccc4n3)o2)CC1 (centres unmarked) [listing 2 of 2 here] | > 5
O=C(c1nnc(N2CCOCC2)o1)N1CCc2[nH]cnc2C1c1ccc2ccccc2n1 (centres unmarked) [listing 2 of 2 here] | > 5
Cc1nnc(C(=O)N2CCc3[nH]cnc3C2c2ccc3ccccc3n2)o1 (centres unmarked) [listing 2 of 2 here] | > 5
CC(C)(F)c1ccc2c(C(=O)N3CCc4[nH]cnc4C3c3ccc4ccccc4n3)cnn2c1 (centres unmarked) [listing 2 of 2 here] | > 5
O=C(c1ncn2ccccc12)N1CCc2[nH]cnc2C1c1ccc2ccccc2n1 (centres unmarked) [listing 2 of 2 here] | > 5
CN(C)Cc1ccc2c(C(=O)N3CCc4[nH]cnc4C3c3ccc4ccccc4n3)cnn2c1 (centres unmarked) [listing 2 of 2 here] | > 5
CN(C)Cc1ccc2c(C(=O)N3CC4(CC4)c4[nH]cnc4C3c3cc4ccccc4cn3)cnn2c1 (centres unmarked) | 1 to 5
C[C@H](O)c1nnc(C(=O)N2CCc3[nH]cnc3[C@H]2c2cc3ccccc3cn2)o1 | 1 to 5
CC1CN(C(=O)c2nnc(N3CCC(F)CC3)o2)C(c2cc3ccccc3cn2)c2nc[nH]c21 (centres unmarked) [listing 1 of 3 here] | 1 to 5
CC1CN(C(=O)c2nnc(N3CCC(F)CC3)o2)C(c2cc3ccccc3cn2)c2nc[nH]c21 (centres unmarked) [listing 2 of 3 here] | 1 to 5
Cc1nnc(C(=O)N2CC(C)c3[nH]cnc3C2c2cc3ccccc3cn2)o1 (centres unmarked) | 1 to 5
CC1CN(C(=O)c2cnn3cc(CN(C)C)ccc23)C(c2cc3ccccc3cn2)c2nc[nH]c21 (centres unmarked) [listing 1 of 3 here] | 1 to 5
CC1CN(C(=O)c2cnn3cc(CN(C)C)ccc23)C(c2cc3ccccc3cn2)c2nc[nH]c21 (centres unmarked) [listing 2 of 3 here] | > 5
CC1CN(C(=O)c2nnc(N3CCC(F)CC3)o2)C(c2cc3ccccc3cn2)c2nc[nH]c21 (centres unmarked) [listing 3 of 3 here] | > 5
CC1CN(C(=O)c2cnn3cc(CN(C)C)ccc23)C(c2cc3ccccc3cn2)c2nc[nH]c21 (centres unmarked) [listing 3 of 3 here] | 1 to 5
COC(=O)N1CC(C(=O)N2CCc3[nH]cnc3[C@H]2c2cc3ccccc3cn2)C1 | 1 to 5
